Values joined by “and” are separate entries in the source; they are usually repeats but may differ in a detail not shown here. Identical values can stand only once. Like-named read-outs stand apart in the source and are kept apart here.
Tests used:
[1] = Human pharmacokinetics, dose-ranging study; assay type: in vivo
Description: In a dose-ranging study, the pharmacokinetics (PK), safety and tolerability of RX-5902 at various oral doses were evaluated. Subjects with advanced or metastatic solid tumors were administered capsules containing RX-5902 at daily doses of 25-775 mg once weekly, 250-300 mg three times a week, 150-300 mg five times a week, or 300-350 mg seven times a week of RX-5902 for up to 6 dosing cycles. Each cycle consisting of 1-5 doses of RX-5902 per week for 3 weeks followed by 1 week of rest, or 5-7 doses of RX-5902 per week for 4 weeks without any rest per 4-week cycle. All but one subject had fasted from food for at least 8 hours before administration. One subject received 300 mg RX-5902 in fed state. Plasma concentrations were measured on Days 1 and 15, for 48 hrs, using a validated LC-MS/MS assay, and noncompartmental pharmacokinetic parameters were calculated using Phoenix WinNonlin, Version 6.4.
Preliminary PK data after a single administration is presented in FIG. 1 (for Subjects #1-11) and Table 3.

WI-38 cells = assay: Western blot of cyclin D1, c-Myc and p-c-Jun; assay type: cell-based; conditions: even at 70 nM
Description: (§1) MDA-MB-231, SK-MEL-28, and WI-38 cells were obtained from ATCC (Manassas, Va., USA) and were cultured according to the vendor's instructions. Anti-p68 antibody and antiY593-p68 antibody were purchased from Cell Signaling (Danvers, Mass.) and Abcam (Cambridge, Mass.), respectively. Antibodies against β-actin, cyclin D1, p-c-Jun and c-Myc, were purchased from Santa Cruz (Dallas, Tex.). Anti-phospho-tyrosine antibody and HRP conjugated GAPDH antibody were obtained from Cell Signaling (Danvers, Mass.). Recombinant β-catenin and p68 protein were purchased from Creative Biomart (Shirley, N.Y.) and Origene (Rockville, Md.), respectively.
(§2) RX-5902 was dissolved in DMSO to prepare a stock solution of 2 mM. The stock solution was stored at −20° C. and diluted with medium to prepare working concentrations.
(§3) Protein mix or cell lysates were separated by SDS-PAGE and transferred to PVDF membrane. The membrane was blocked by blocking buffer (1×TBST containing 5% BSA) at room temperature for 1 hour. After a brief wash, the membrane was incubated with primary antibody in blocking buffer at 4° C. overnight. After incubation in primary antibody, the membrane was washed with 1×TBST three times and subsequently incubated with HRP conjugated secondary antibody in blocking buffer at room temperature for 1 hour. The membrane was again washed three times and visualized by ECL system (Thermo Scientific, Rockford, Ill.).
(§4) Since RX-5902 directly binds to Y593 phospho-p68, it was hypothesized that treatment of cells with RX-5902 would interfere with the phospho-p68/β-catenin interaction and consequently affect the expression of several growth associated genes, including p-c-Jun, c-Myc and cyclin D, which are regulated by phospho-p68/β-catenin interaction. Thus, cyclin D1 and c-Myc expression, as well as phosphorylation of c-Jun in cells treated with RX-5902, were analyzed. Cancer cell lines, SK-MEL-28 and MDA-MB-231, and normal fetal lung fibroblasts, WI-38, were used.

SK-MEL-28 cells = assay: Western blot of cyclin D1, c-Myc and p-c-Jun; assay type: cell-based
Description: as §1, §2, §3, §4

[2] = oral capsule, 300 mg, 1 per week, Day 1, fasted
[3] = oral capsule, 300 mg, 5 per week, Day 1, fasted
[4] = oral capsule, 775 mg, 1 per week, Day 1, fasted

## COc1cc(OC)cc(N2CCN(C(=O)Nc3nc4cc(F)ccc4nc3OC)CC2)c1 [RX-5902, 4-(3,5-dimethoxyphenyl)-N-(7-fluoro-3-methoxyquinoxalin-2-yl)piperazine-1-carboxamide]
[1]; human, plasma, po, 300 mg, oral capsule, 300 mg, 1 per week, Day 1, fed, read-out: Cmax
  Cmax: 779 ng/mL
[1]; human, plasma, po, 300 mg, oral capsule, 300 mg, 1 per week, Day 1, fed, read-out: T1/2 (converted)
  half-life: 11.9 h
[1]; human, plasma, po, 300 mg, oral capsule, 300 mg, 1 per week, Day 1, fed, read-out: Tmax
  Tmax: 4 h
[1]; human, plasma, po, 300 mg, oral capsule, 300 mg, 3 per week, Day 1, fasted, read-out: AUC0-24
  AUC(0-t): 3850 ng·h/mL
[1]; human, plasma, po, 300 mg, oral capsule, 300 mg, 3 per week, Day 1, fasted, read-out: AUC0-48
  AUC(0-t): 4560 ng·h/mL
[1]; human, plasma, po, 300 mg, oral capsule, 300 mg, 3 per week, Day 1, fasted, read-out: Cmax
  Cmax: 288 ng/mL
[1]; human, plasma, po, 300 mg, oral capsule, 300 mg, 3 per week, Day 1, fasted, read-out: T1/2 (converted)
  half-life: 10.3 h
[1]; human, plasma, po, 300 mg, oral capsule, 300 mg, 3 per week, Day 1, fasted, read-out: Tmax
  Tmax: 6 h
[1]; human, plasma, po, 300 mg, oral capsule, 300 mg, 3 per week, Day 15, fasted, read-out: AUC0-24
  AUC(0-t): 3050 ng·h/mL
[1]; human, plasma, po, 300 mg, oral capsule, 300 mg, 3 per week, Day 15, fasted, read-out: AUC0-48
  AUC(0-t): 4140 ng·h/mL
[1]; human, plasma, po, 300 mg, oral capsule, 300 mg, 3 per week, Day 15, fasted, read-out: Cmax
  Cmax: 301 ng/mL
[1]; human, plasma, po, 300 mg, oral capsule, 300 mg, 3 per week, Day 15, fasted, read-out: Tmax
  Tmax: 2 h
[1]; human, plasma, po, 300 mg, oral capsule, 300 mg, 5 per week, Day 1, fasted, read-out: AUC0-24
  AUC(0-t): 3800 ng·h/mL
[1]; human, plasma, po, 300 mg, oral capsule, 300 mg, 5 per week, Day 1, fasted, read-out: Cmax
  Cmax: 317 ng/mL
[1]; human, plasma, po, 300 mg, oral capsule, 300 mg, 5 per week, Day 15, fasted, read-out: AUC0-24
  AUC(0-t): 3840 ng·h/mL
[1]; human, plasma, po, 300 mg, oral capsule, 300 mg, 5 per week, Day 15, fasted, read-out: Tmax
  Tmax: 1.5 h
[1]; human, plasma, po, 300 mg, oral capsule, 300 mg, 7 per week, Day 1, fasted, read-out: AUC0-24
  AUC(0-t): 2990 ng·h/mL
[1]; human, plasma, po, 300 mg, oral capsule, 300 mg, 7 per week, Day 1, fasted, read-out: AUC0-48
  AUC(0-t): 3180 ng·h/mL
[1]; human, plasma, po, 300 mg, oral capsule, 300 mg, 7 per week, Day 15, fasted, read-out: Cmax
  Cmax: 1250 ng/mL
[1]; human, plasma, po, 300 mg, oral capsule, 300 mg, 7 per week, Day 15, fasted, read-out: Tmax
  Tmax: 6 h
[1]; human, plasma, po, 350 mg, oral capsule, 350 mg, 7 per week, Day 1, fasted, read-out: AUC0-24
  AUC(0-t): 4820 ng·h/mL
[1]; human, plasma, po, 350 mg, oral capsule, 350 mg, 7 per week, Day 1, fasted, read-out: AUC0-48
  AUC(0-t): 4960 ng·h/mL
[1]; human, plasma, po, 350 mg, oral capsule, 350 mg, 7 per week, Day 1, fasted, read-out: Cmax
  Cmax: 750 ng/mL
[1]; human, plasma, po, 350 mg, oral capsule, 350 mg, 7 per week, Day 1, fasted, read-out: Tmax
  Tmax: 1.5 h
[1]; human, plasma, po, 425 mg, oral capsule, 425 mg, 1 per week, Day 1, fasted, read-out: AUC0-24
  AUC(0-t): 9320 ng·h/mL
[1]; human, plasma, po, 425 mg, oral capsule, 425 mg, 1 per week, Day 1, fasted, read-out: AUC0-48
  AUC(0-t): 14700 ng·h/mL
[1]; human, plasma, po, 425 mg, oral capsule, 425 mg, 1 per week, Day 1, fasted, read-out: Cmax
  Cmax: 660 ng/mL
[1]; human, plasma, po, 425 mg, oral capsule, 425 mg, 1 per week, Day 1, fasted, read-out: Tmax
  Tmax: 2 h
[1]; human, plasma, po, 575 mg, oral capsule, 575 mg, 1 per week, Day 1, fasted, read-out: AUC0-24
  AUC(0-t): 6820 ng·h/mL
[1]; human, plasma, po, 575 mg, oral capsule, 575 mg, 1 per week, Day 1, fasted, read-out: AUC0-48
  AUC(0-t): 10100 ng·h/mL
[1]; human, plasma, po, 575 mg, oral capsule, 575 mg, 1 per week, Day 1, fasted, read-out: Cmax
  Cmax: 707 ng/mL
[1]; human, plasma, po, 575 mg, oral capsule, 575 mg, 1 per week, Day 1, fasted, read-out: Tmax
  Tmax: 4 h
[1]; human, plasma, po, 775 mg, oral capsule, 775 mg, 1 per week, Day 1, fasted, read-out: AUC0-24
  AUC(0-t): 3540 ng·h/mL
[1]; human, plasma, po, 775 mg, oral capsule, 775 mg, 1 per week, Day 1, fasted, read-out: AUC0-48
  AUC(0-t): 5010 ng·h/mL
[1]; human, plasma, po, 775 mg, oral capsule, 775 mg, 1 per week, Day 1, fasted, read-out: Cmax
  Cmax: 487 ng/mL
[1]; human, plasma, po, 775 mg, oral capsule, 775 mg, 1 per week, Day 1, fasted, read-out: T1/2 (converted)
  half-life: 9.7 h
[1]; human, plasma, po, oral capsules, all subjects, after dosing, read-out: Tmax, observed range
  Tmax: 1 to 6 h
[1]; human, plasma, po, oral capsules, all subjects, read-out: Apparent terminal T1/2, mean value (converted)
  half-life: 13 h
[1]; human, plasma, po, oral capsules, all subjects, read-out: Apparent terminal T1/2, range
  half-life: 5.8 to 27.6 h
[1]; [2]
  AUC0-24: 4170 ng·h/mL
  AUC0-48: 5552 ng·h/mL
  Cmax: 452 ng/mL
  T1/2: 15.6 h
[1]; [3]
  AUC0-24: 4607 ng·h/mL and 3855 ng·h/mL
  Cmax: 549 ng/mL and 419 ng/mL and 624 ng/mL
[1]; oral capsule, 300 mg, 5 per week, Day 15, fasted
  AUC0-24: 4878 ng·h/mL
[1]; [4]
  AUC0-24: 6925 ng·h/mL
  AUC0-48: 8126 ng·h/mL
  Cmax: 654 ng/mL
[1]; oral capsules, sometimes displayed
  apparent, short lag time: 0.25 h
[1]; oral capsules, usually
  share of AUC0-t (0-48 hours) observed by 24 hours: over 75%
WI-38 cells
  cyclin D1, c-Myc expression and c-Jun phosphorylation: did not result in any significant change
SK-MEL-28 cells; 20 nM
  cyclin D1, c-Myc and p-c-Jun protein levels: did not change protein levels
SK-MEL-28 cells; 70 nM
  cyclin D1, c-Myc expression and c-Jun phosphorylation: decrease in expression of both cyclin D1 and c-Myc and a decrease in c-Jun phosphorylation

— patent US9969698B2, “Quinoxalinyl-piperazinamide methods of use” (REXAHN PHARMACEUTICALS, INC., priority 2015, dated 2018)
